Measurements published in patent US12428396B2, “Fused pyridine ring derivative, preparation method therefor, and pharmaceutical use thereof” (priority 2019, dated 2025).
Like-named read-outs stand apart in the source and are kept apart here.

Assay: Beagle pharmacokinetic study (ig/sc/iv, plasma LC/MS/MS)
Format: in vivo, beagles
Conditions: for AUC(0-t) / half-life / Cmax: dog, plasma; for AUC(0-t): read-out: Area under curve AUC0-72; for half-life: read-out: Half life T½ (converted); for Cmax: read-out: Plasma concentration Cmax
Description: Taking beagles as test animals, and the drug concentrations in dog plasma at various times after intragastric administration (ig)/subcutaneous injection (sc)/intravenous injection (iv) administration of the compound of Example 1-1 and Positive Control Example 1 were measured by using LC/MS/MS method. The pharmacokinetic performance in beagles of the compounds of the present disclosure was studied and the pharmacokinetic profile thereof was evaluated.
18 non-naïve beagles (999M-004, medicilon) with 7-12 kg, every 3 of which were in one group.
The intragastric administration group: a certain amount of the compounds was weighed, ethanol with a volume of 5% of the final volume, 20% PG, 45% PEG300 and 30% deionized water were added (the pH was adjusted to be about 2 with 0.01 N HCl), and the reaction mixture was subjected to ultrasonic stirring for uniform mixing to give an administration solution at a concentration of 0.8 mg/mL.
The subcutaneous injection administration group: a certain amount of the compounds was weighed, 2% aqueous poloxamer 188 solution with a proper volume was added, and the reaction mixture was subjected to ultrasonic stirring for uniform mixing to give a suspension administration solution at a concentration of 200 mg/mL.
The intravenous administration group: a certain amount of the compounds was weighed, 5% volume of DMSO, 30% PG, 30% PEG400 and 35% volume of normal saline were added, and the reaction mixture was subjected to vortex ultrasonic stirring for uniform mixing to give an administration solution at a concentration of 0.5 mg/mL.
Beagles were intragastrically administered with the compounds after fasting overnight, at a dose of 4.0 mg/kg and a volume of 5.0 mL/kg.
Beagles were subcutaneously injected with the compounds after fasting overnight, at a dose of 6.0 mg/kg and a volume of 0.03 mL/kg.
Beagles were intravenously injected with the compounds after fasting overnight, at a dose of 1.0 mg/kg and a volume of 2 mL/kg.
Beagles were intragastrically administered with the compound of Example 1-1/Positive Control Example 1, and 1 mL of blood was collected from the orbit before administration and at 0.25 h, 0.5 h, 1.0 h, 2.0 h, 4.0 h, 6.0 h, 8.0 h, 12.0 h, 24 h, 32 h, 48 h, 56 h and 72 h after administration, respectively, and placed in EDTA-K2 anticoagulant blood collection tubes, plasma was centrifuged (centrifugal force: 2200 g, centrifugation time: 10 min, 2-8° C.), and stored at −80° C., and food intake was resumed 3 h after administration.
The compound of Example 1-1/Positive Control Example 1 was subcutaneously injected to beagles, and 1 mL of blood was collected before administration and at 1.0 h, 3.0 h, 8.0 h, 24 h, 48 h, 72 h, 96 h, 168 h, 336 h, 432 h and 504 h after administration, respectively, and placed in EDTA-K2 anticoagulant blood collection tubes, plasma was centrifuged (centrifugal force: 2200 g, centrifugation time: 10 min, 2-8° C.), and stored at −80° C., and food intake was resumed 3 h after administration.
The content of the compound to be tested in the plasma of beagles was determined after the intragastric administration of the compounds at different concentrations: 20 μL of the plasma in beagles at each time after administration was taken, 200 μL of methanol containing internal standard (100 ng/mL) was added, the reaction mixture was subjected to vortex mixing for 1 min, and centrifuged for 7 min (centrifugal force: 18000 g), and 1 μL of the supernatant was taken from the plasma sample for LC/MS/MS analysis. […]

[1] = po, intragastric administration, 4 mg/kg
[2] = sc, subcutaneous injection, 6 mg/kg

`CC(C)(C#Cc1nc([C@H](Cc2cc(F)cc(F)c2)NC(=O)Cn2nc(C(F)(F)F)c3c2C(F)(F)[C@@H]2C[C@H]32)c(-c2ccc(Cl)c3c(NS(C)(=O)=O)nn(CC(F)(F)F)c23)c2c1CCC2)S(C)(=O)=O` (atropisomer, axis not shown; (aR)) [Example 1-1, N—((S)-1-((R)-4-(4-chloro-3-(methanesulfonamide)-1-(2,2,2-trifluoroethyl)-1H-indazol-7-yl)-1-(3-methyl-3-(methylsulfonyl)but-1-yn-1-yl)-6,7-dihydro-5H-cyclopenta[c]pyridin-3-yl)-2-(3,5-difluorophenyl)ethyl)-2-((3bS,4aR)-5,5-difluoro-3-(trifluoromethyl)-3b,4,4a,5-tetrahydro-1H-cyclopropa[3,4]cyclopenta[1,2-c]pyrazol-1-yl)acetamide] showed an AUC(0-t) (intravenous injection, 1 mg/kg) of 16500 ng·h/mL, a half-life (intravenous injection, 1 mg/kg) of 41.8 h and a Cmax (intravenous injection, 1 mg/kg) of 1320 ng/mL. It also gave an AUC(0-t) [1] of 8230 ng·h/mL, a half-life [1] of 44.3 h and a Cmax [1] of 251 ng/mL. For the same molecule, the AUC(0-t) [2] was 34800 ng·h/mL, the Cmax [2] was 122 ng/mL and the “Clearance CLz/F” value (intravenous injection, 1 mg/kg) was 0.7 mL/min/kg.
